Experimental data taken from patent US20140106967A1, “AUXIN PLANT GROWTH REGULATORS” (The Governors of The University of Alberta, priority 2011, published 2014).

Tests used:
tomato fruit = settings: cited from earlier work
[1] = test system: AtGA20ox and AtGA3ox genes; settings: non-pollinated fruits; cited from earlier work
pea 'Carneval' = assay: Growth chamber experiment 1, pea 'Carneval' sprayed with 4-Cl-IAA (Table P2); format: in vivo, Pisum sativum L.; settings: for Seed yield per plant: sprayed near or at anthesis
Method: For growth chamber experiment, seeds of ‘Carneval’ were planted at an approximate depth of 2.5 cm in 3-L plastic pots (4 seeds per pot and thinned to 2 plants per pot after approximately 2 weeks) in 1:1 Sunshine #4 potting mix (Sun Gro Horticulture, Vancouver, Canada) and sand. The experiment was arranged in a completely randomized design and grown at the University of Alberta in a growth chamber set at 19° C./17° C. (day/night) with a 16/8-h photoperiod under cool-white fluorescent lights (54W/835/HO high fluorescent bulbs, Phillips, Holland; 350 μE m^2 s^−2). For the heat stress treatment, plants were placed in a separate growth chamber with a 16/8-h photoperiod under cool-white fluorescent lights (F54/15/835/HO high fluorescent bulbs, Phillips, Holland) for 4 days where the temperature was cycled over a 24 hr period as follows: 33° C. air temperature for 6 hours per day (between 11:00 and 17:00 hrs) for 4 days during the light cycle; the remainder of the light cycle was maintained at a 22° C. air temperature; the dark cycle was maintained at 19° C. After the 4 day heat treatment, the plants were returned to the same growth chamber they were originally grown in, where they were taken to maturity.
For experiment 1, aqueous 4-chloro-indole-3-acetic acid (4-Cl-IAA) solutions at 1×10^−7, 1×10^−6, or 1×10^−5M in 0.1% (v/v) Tween 80 or aqueous 0.1% (v/v) Tween 80 (control) were applied one time as a spray to the entire plant to cover when the first flowering node of the main stem was near or at anthesis.

canola cv. Peace = assay: Greenhouse canola study, foliar auxin spray at green bud stage, with or without heat stress (Tables C1-C4); format: in vivo, Brassica napus
Method: Canola seeds (Brassica napus) from the cultivar Peace were planted at an approximate depth of 1 cm in 5 inch square plastic pots (6 inch pot depth; 4 seeds per pot) in 1:1 Sunshine #4 potting mix (Sun Gro Horticulture, Vancouver, Canada) and sand. The seedlings were thinned to one seedling per pot approximately 2 weeks after seeding. Plants were grown at the University of Alberta in a greenhouse from Nov. 14, 2011 to Mar. 5, 2012. The average temperature was approximately 18° C. day/16° C. night (Nov. 14, 2011 to Feb. 8, 2012) then 21° C. day/19° C. night from Feb. 8 to Mar. 5, 2012. The plants also received supplemental lighting daily (average photon flux density of 250 μE m^−2s^−2) for 16 hours per day (from 6 am to 10 pm).
The auxins, 4-methyl-indole-3-acetic acid (4-ME-IAA) or 4-chloro-indole-3-acetic acid (4-Cl-IAA) at 1×10^−7, 1×10^−6, 1×10^−5, or 1×10^−4M in aqueous 0.1% (v/v) Tween 80 or a control solution (aqueous 0.1% [v/v] Tween 80) were applied one time as a foliar spray to canola plants at the green bud stage (BBCH scale 51; prior to bolting when flower buds are visible from above, but they are tightly clustered and have not extended above smallest leaves surrounding the inflorescence). The experiment was arranged in a completely randomized design in the greenhouse.
The heat stress treatment was imposed by moving plants to receive the heat stress from the greenhouse into a growth chamber for 6 days. The light cycle began at 7:00 hours at a 19° C. air temperature. The heat treatment began at 11:00 hours (33° C. air temperature) and was maintained for 6 hours (until 17:00 hours). Following the heat treatment, the remainder of the light cycle was maintained at a 22° C. air temperature. The dark cycle (began at 23:00 hours) was maintained at 17° C. The photoperiod was 16 h light/8 h dark at an average photon flux density of 492 μE m^−2s^−2 using 54W/835/HO high fluorescent bulbs, Phillips, Holland. This heat treatment cycle was imposed for 6 days. The plants were returned to the greenhouse after the heat stress treatment to develop to maturity.

pea pericarp [2] = assay: Split-pericarp assay: growth of deseeded pea pericarps attached to the plant; format: in vivo, Pisum sativum
Excerpt: In addition to GAs, developing pea seeds and pericarps contain two auxins, 4-chloroindole-3-acetic acid (4-Cl-IAA) and indole-3-acetic acid (IAA) (Magnus et al. 1997). A split-pericarp assay where test compounds are applied to the inner wall of split and deseeded pericarps that are still attached to the plant has been developed to examine the effects of exogenously applied growth substances on pericarp growth.
(§1) During early pea fruit growth, the physiological roles of 4-chloroindole-3-acetic acid (4-Cl-IAA) and IAA, both natural pea auxins, in regulating gibberellin (GA) 20-oxidase gene expression (PsGA20ox1) were tested with 4-position, ring-substituted auxins that have a range of biological activities (fruit growth). The effect of seeds, and natural and synthetic auxins (4-Cl-IAA, and IAA; 4-Me-IAA, 4-Et-IAA and 4-F-IAA, respectively), and auxin concentration (4-Cl-IAA) on PsGA20ox1 mRNA levels in pea pericarp were investigated over a 24 h treatment period. The ability of certain 4-substituted auxins to increase PsGA20ox1 mRNA levels in deseeded pericarp was correlated with their ability to stimulate pericarp growth.

[3] = test system: PsGA20ox1, PsGA3ox1, PsGA2ox1; assay: GA biosynthesis/catabolism gene expression in pea pericarp; format: in vivo, Pisum sativum; settings: 24 h treatment period
Method: as §1

pea pericarp [4] = settings: cited from earlier work; for substitution for seeds in stimulating pericarp growth: deseeded pericarps, early pericarp growth (2 DAA); for substitution for the seeds in maintaining pea fruit growth in planta: in vivo
[5] = test system: PsGA20ox1, PsGA3ox1, PsGA2ox1; settings: in vivo; cited from earlier work
[6] = 1×10^−4 M, heat stress 33° C. 6 h/day, 6 days (Table C4)
[7] = 1×10^−4 M, non-heat stress (Table C3)
[8] = 1×10^−5 M, heat stress 33° C. 6 h/day, 6 days (Table C4)
[9] = 1×10^−5 M, non-heat stress (Table C3)
[10] = 1×10^−6 M, heat stress 33° C. 6 h/day, 6 days (Table C4)
[11] = 1×10^−6 M, non-heat stress (Table C3)
[12] = 1×10^−7 M, heat stress 33° C. 6 h/day, 6 days (Table C4)
[13] = 1×10^−7 M, non-heat stress (Table C3)

For `O=C(O)COc1ccc(Cl)cc1Cl` [2,4-D], the parthenocarpic fruit growth (tomato fruit) is listed as “induced parthenocarpic tomato fruit growth” and the “expression of specific AtGA20ox and AtGA3ox genes” value [1] is listed as “up-regulated”.

For `O=C(O)Cc1c[nH]c2cccc(Cl)c12` [4-Cl-IAA, 4-chloroindole-3-acetic acid], the “increase in seed yield vs control” value (pea 'Carneval'; 1×10^−5 M) was 62%, the “Seed yield per plant” value (pea 'Carneval'; 1×10^−5 M) was 18.28 ± 1.55 g and the “increase in seed yield vs control” value (pea 'Carneval'; 1×10^−6 M) was 65%. For the same compound, the “Seed yield per plant” value (pea 'Carneval'; 1×10^−6 M) was 18.61 ± 1.65 g, the “Seed yield per plant” value (pea 'Carneval'; 1×10^−7 M) was 13.60 ± 1.33 g and the leaf epinasty (canola cv. Peace; 1×10^−4 M, 24 hours after treatment, milder under heat stress) was “leaf epinasty was observed”. The “% pod set” value (canola cv. Peace; [6]) was 49 ± 4%, the Seed yield (canola cv. Peace; [6]) was 4.9 ± 0.8 g and the “Total number of flowers” value (canola cv. Peace; [6]) was 312 ± 32. For the same compound, the “Total number of pods with developing seeds” value (canola cv. Peace; [6]) was 151 ± 17, the “Total number of racemes” value (canola cv. Peace; [6]) was 12 ± 1 and the “Total number undeveloped pods” value (canola cv. Peace; [6]) was 45 ± 15. The “% pod set” value (canola cv. Peace; [7]) was 54 ± 4%, the Seed yield (canola cv. Peace; [7]) was 4.0 ± 0.3 g and the “Total number of flowers” value (canola cv. Peace; [7]) was 201 ± 24. For the same compound, the “Total number of pods with developing seeds” value (canola cv. Peace; [7]) was 106 ± 8, the “Total number of racemes” value (canola cv. Peace; [7]) was 8 ± 1 and the “Total number undeveloped pods” value (canola cv. Peace; [7]) was 17 ± 4. The “reduction in number of racemes per plant vs control” value (canola cv. Peace; 1×10^−4 M, non-stress) was 33%, the “reduction in seed yield vs control” value (canola cv. Peace; 1×10^−4 M, non-stress) was 26% and the “reduction in total number of developing pods per plant vs control” value (canola cv. Peace; 1×10^−4 M, non-stress) was 31%. The “% pod set” value (canola cv. Peace; [8]) was 48 ± 2%, the Seed yield (canola cv. Peace; [8]) was 5.5 ± 1.0 g and the “Total number of flowers” value (canola cv. Peace; [8]) was 414 ± 65. The “Total number of pods with developing seeds” value (canola cv. Peace; [8]) was 198 ± 33, the “Total number of racemes” value (canola cv. Peace; [8]) was 14 ± 2 and the “Total number undeveloped pods” value (canola cv. Peace; [8]) was 34 ± 6. For the same compound, the “increase in total number of pods with developing seeds per plant vs control” value (canola cv. Peace; 1×10^−5 M, non-heat stress) was 27%, the “% pod set” value (canola cv. Peace; [9]) was 57 ± 6% and the Seed yield (canola cv. Peace; [9]) was 5.8 ± 1.0 g. For the same compound, the “Total number of flowers” value (canola cv. Peace; [9]) was 362 ± 53, the “Total number of pods with developing seeds” value (canola cv. Peace; [9]) was 195 ± 21 and the “Total number of racemes” value (canola cv. Peace; [9]) was 14 ± 2. For the same compound, the “Total number undeveloped pods” value (canola cv. Peace; [9]) was 47 ± 19, the “% pod set” value (canola cv. Peace; [10]) was 53 ± 3% and the Seed yield (canola cv. Peace; [10]) was 6.8 ± 0.5 g. The “Total number of flowers” value (canola cv. Peace; [10]) was 430 ± 39, the “Total number of pods with developing seeds” value (canola cv. Peace; [10]) was 229 ± 30 and the “Total number of racemes” value (canola cv. Peace; [10]) was 15 ± 1. The “Total number undeveloped pods” value (canola cv. Peace; [10]) was 42 ± 5, the “seed yield vs control” value (canola cv. Peace; 1×10^−6 M, mild heat stress) was “significant increase” and the “% pod set” value (canola cv. Peace; [11]) was 59 ± 4%. The “Total number of flowers” value (canola cv. Peace; [11]) was 290 ± 26, the “Total number of pods with developing seeds” value (canola cv. Peace; [11]) was 174 ± 25 and the “Total number of racemes” value (canola cv. Peace; [11]) was 12 ± 1. The “Total number undeveloped pods” value (canola cv. Peace; [11]) was 29 ± 4, the “% pod set” value (canola cv. Peace; [12]) was 46 ± 3% and the Seed yield (canola cv. Peace; [12]) was 6.0 ± 0.9 g. For the same compound, the “Total number of flowers” value (canola cv. Peace; [12]) was 443 ± 70, the “Total number of pods with developing seeds” value (canola cv. Peace; [12]) was 197 ± 15 and the “Total number of racemes” value (canola cv. Peace; [12]) was 13 ± 2. For the same compound, the “Total number undeveloped pods” value (canola cv. Peace; [12]) was 43 ± 14, the “increase in percent pod set vs control” value (canola cv. Peace; 1×10^−7 M, non-heat stress) was 21% and the “increase in total number of pods with developing seeds per plant vs control” value (canola cv. Peace; 1×10^−7 M, non-heat stress) was 18%. For the same compound, the “% pod set” value (canola cv. Peace; [13]) was 64 ± 4%, the Seed yield (canola cv. Peace; [13]) was 6.2 ± 0.6 g and the “Total number of flowers” value (canola cv. Peace; [13]) was 287 ± 29. For the same compound, the “Total number of pods with developing seeds” value (canola cv. Peace; [13]) was 181 ± 14, the “Total number of racemes” value (canola cv. Peace; [13]) was 10 ± 1 and the “Total number undeveloped pods” value (canola cv. Peace; [13]) was 26 ± 9. The “pericarp growth (biological activity)” value (pea pericarp [2]) was “greatest increase”, the “PsGA20ox1 mRNA levels in deseeded pericarp” value (“PsGA20ox1 mRNA levels” below) [3] was “greatest increase” and the “substitution for seeds in stimulating pericarp growth” value (pea pericarp [4]) was “can substitute for seeds in stimulating pericarp growth”. The “substitution for the seeds in maintaining pea fruit growth in planta” value (pea pericarp [4]) was “can substitute for the seeds”, the “gene expression of the GA catabolic gene PsGA2ox1” value [5] was “repress” and the “pericarp GA biosynthesis gene expression, PsGA20ox1 and PsGA3ox1” value [5] was “stimulate”.

With `CCc1cccc2[nH]cc(CC(=O)O)c12` [4-Et-IAA] the “pericarp growth (biological activity)” value (pea pericarp [2]) was “minimal or no increase” and the “PsGA20ox1 mRNA levels” value [3] was “minimal or no increase”.

In the case of `O=C(O)Cc1c[nH]c2cccc(F)c12` [4-F-IAA], the “pericarp growth (biological activity)” value (pea pericarp [2]) is reported as “minimal or no increase” and the “PsGA20ox1 mRNA levels” value [3] is reported as “minimal or no increase”.

For `O=C(O)Cc1c[nH]c2ccccc12` [IAA, indole-3-acetic acid, reference compound], the “pericarp growth (biological activity)” value (pea pericarp [2]) is listed as “not effective”, the “PsGA20ox1 mRNA levels” value [3] is listed as “not effective” and the “substitution for seeds in stimulating pericarp growth” value (pea pericarp [4]) is listed as “cannot”. The “substitution for the seeds in maintaining pea fruit growth in planta” value (pea pericarp [4]) was “not”.
